Data published in US10266528B2, “2-oxo-imidazopyridines as reversible BTK inhibitors and uses thereof” (Merck Patent GmbH, priority 2016, dated 2019).
pIC50: −log10 of the molar value.

Key:
[1] = test system: anti-IgM-induced expression of CD69 in human peripheral blood mononuclear cells (PBMCs); assay: PBMC IC50 assay: anti-IgM-induced CD69 expression on CD19 positive cells; format: cell-based; conditions: anti-IgM stimulation, CD69 expression on CD19 positive B cells
Method: Btk is critical for mediating the signalling of B cell antigen receptor (BCR) after anti-IgM stimulation. Based on this principle, a functional cell-based assay was established to determine the potency of compounds at inhibiting anti-IgM-induced expression of CD69, a downstream BCR signaling event, in freshly isolated human peripheral blood mononuclear cells (PBMCs). In the assay, a 90 μl PBMC suspension containing 2.5×10^5 cells was pre-treated with 10 μl of test compound at various concentrations for an hour, and then incubated overnight (approximately 16-18 hours) with 5 μl 420 μg/ml affiniPure F(ab′)2 fragment goat anti-human IgM Fc fragment per well (Dianova, Cat. No.: 109-006-129). After the incubation, the cells were washed and immunostained with an APC-labeled mouse anti-human CD69 (BD Biosciences; clone: FN50), a PerCP-Cy5.5 labelled mouse anti-human CD19 (BD Biosciences; clone: SJ25C1) and a FITC-labelled mouse anti-human CD3 (BD Biosciences; clone: HIT3a), and fixed for flow cytometric analysis of CD69 expression on CD19 positive cells (B cells). The percentage of CD69 expressing CD19 positive cells was plotted against the concentrations of test compounds to obtain a concentration response curve, and calculate an IC50 value as a measure of the potency of test compounds in the assay.

full-length human BTK = full-length human BTK (Homo sapiens (Human), UniProt Q06187); assay: Microfluidic off-chip mobility shift kinase assay against BTK enzyme; format: biochemical; conditions: 90 min at 27° C.
full-length human BTK, sequence (Q06187 whole entry): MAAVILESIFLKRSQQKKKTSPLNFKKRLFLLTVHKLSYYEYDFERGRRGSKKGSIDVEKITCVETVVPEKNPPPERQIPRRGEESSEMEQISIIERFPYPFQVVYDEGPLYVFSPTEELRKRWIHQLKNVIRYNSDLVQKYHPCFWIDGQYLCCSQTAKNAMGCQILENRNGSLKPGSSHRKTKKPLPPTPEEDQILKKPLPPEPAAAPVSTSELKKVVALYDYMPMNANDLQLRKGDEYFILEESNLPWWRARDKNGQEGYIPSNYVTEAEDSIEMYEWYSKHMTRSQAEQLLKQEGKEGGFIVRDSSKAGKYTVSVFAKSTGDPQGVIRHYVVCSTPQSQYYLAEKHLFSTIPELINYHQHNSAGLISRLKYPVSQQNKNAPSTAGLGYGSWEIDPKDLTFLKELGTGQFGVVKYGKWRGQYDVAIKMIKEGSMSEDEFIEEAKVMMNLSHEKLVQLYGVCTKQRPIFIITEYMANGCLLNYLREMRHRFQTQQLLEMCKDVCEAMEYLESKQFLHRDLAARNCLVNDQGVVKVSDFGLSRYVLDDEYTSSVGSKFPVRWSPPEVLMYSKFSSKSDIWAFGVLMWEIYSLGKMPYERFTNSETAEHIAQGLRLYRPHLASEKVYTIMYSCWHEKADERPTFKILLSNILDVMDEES
Method: Example 23. Microfluidic Off-Chip Mobility Shift Assay Protocol for Potency Assessment Against BTK Enzyme
The protocol below describes microfluidic, off-chip mobility shift kinase assay to measure inherent potency of compounds against BTK enzyme.
5 uL of enzyme buffer and 7.5 uL of ATP/kinKDR peptide substrate mix were added to Matrix (#115304) 384-well, sterile, polypropylene plates (Thermo Fisher Scientific, Hudson, N.H.) with 125 nL of serially diluted compounds prepared in 100% DMSO, and incubated for 90 min. at 27° C. Following the incubation period, reactions were stopped by adding 60 uL stop buffer consisting of 100 mM HEPES, pH 7.5, 0.015% Brij-35 (30%), 0.277% Coating Reagent #3 (Caliper Life Sciences, Mountain View, Calif.), 5% DMSO. Stopped reactions were monitored at −2 PSI, −3000 V/−700 V in a LabChip 3000 plate reader from Caliper Life Sciences, a PerkinElmer Company (Hopkinton, Mass.), and the activity was measured by off-chip mobility shift assay measuring the charge/mass difference between substrate and product resulting from peptide phosphorilation. IC50 and efficacy were determined by plotting log [Inhibitor] vs. % Activity in GeneData Screener (Basel, Switzerland).

WB = WB IC50 (no method described); format: cell-based

Structure (SMILES) | pIC50 (full-length human BTK) | pIC50 (WB) | pIC50 ([1]; Homo sapiens, PBMC) | pIC50 [1]
CC(C)(O)c1ccc(C(=O)NCc2ccc(-c3ccnc4[nH]c(=O)[nH]c34)cc2F)cc1 [Compound 9, N-[2-Fluoro-4-(2-oxo-2,3-dihydro-1H-imidazo[4,5-b]pyridin-7-yl)-benzyl]-4-(1-hydroxy-1-methyl-ethyl)-benzamide] | < 6.00 |  |  | 
CC(C)(C)c1noc(C(=O)NC2CCCc3cc(-c4ccnc5[nH]c(=O)[nH]c45)ccc32)n1 (centres unmarked) [Compound 15, 3-tert-Butyl-[1,2,4]oxadiazole-5-carboxylic Acid [6-(2-oxo-2,3-dihydro-1H-imidazo[4,5-b]pyridin-7-yl)-1,2,3,4-tetrahydro-naphthalen-1-yl]-amide] | 7.00 to 8.00 |  |  | 
Cc1cc(-c2ccnc3[nH]c(=O)[nH]c23)c(F)cc1CNC(=O)c1nc(C(C)(C)C)no1 [Compound 16, 3-tert-Butyl-[1,2,4]oxadiazole-5-carboxylic Acid 5-fluoro-2-methyl-4-(2-oxo-2,3-dihydro-1H-imidazo[4,5-b]pyridin-7-yl)-benzylamide] | > 8.00 |  | 6.00 to 7.00 | 
CC1(C)Cc2cc3n(c2C1)CCN(c1cc(F)cc(-c2ccnc4[nH]c(=O)[nH]c24)c1CO)C3=O [Compound 21, 2-[5-Fluoro-2-hydroxymethyl-3-(2-oxo-2,3-dihydro-1H-imidazo[4,5-b]pyridin-7-yl)-phenyl]-7,7-dimethyl-3,4,7,8-tetrahydro-2H,6H-cyclopenta[4,5]pyrrolo[1,2-a]pyrazin-1-one] | > 8.00 |  |  | 
CC(C)(C)c1noc(C(=O)NC2CCCCc3cc(-c4ccnc5[nH]c(=O)[nH]c45)ccc32)n1 (centres unmarked) [Compound 12, 3-tert-Butyl-[1,2,4]oxadiazole-5-carboxylic Acid [2-(2-oxo-2,3-dihydro-1H-imidazo[4,5-b]pyridin-7-yl)-6,7,8,9-tetrahydro-5H-benzocyclohepten-5-yl]-amide] | > 8.00 |  | > 8.00 | 
CC(C)(C)c1noc(C(=O)NC2CCCCc3cc(-c4ccnc5[nH]c(=O)[nH]c45)ccc32)n1 (centres unmarked) [Compound 11, 3-tert-Butyl-[1,2,4]oxadiazole-5-carboxylic Acid [2-(2-oxo-2,3-dihydro-1H-imidazo[4,5-b]pyridin-7-yl)-6,7,8,9-tetrahydro-5H-benzocyclohepten-5-yl]-amide] | > 8.00 |  |  | 7.00 to 8.00
O=C(NCc1ccc(-c2ccnc3[nH]c(=O)[nH]c23)cc1F)NCC1CC2CCC1C2 (centres unmarked) [Compound 4, 1-Bicyclo[2.2.1]hept-2-ylmethyl-3-[2-fluoro-4-(2-oxo-2,3-dihydro-1H-imidazo[4,5-b]pyridin-7-yl)-benzyl]-urea] | 7.00 to 8.00 |  | < 6.00 | 
CC(C)(C)c1noc(C(=O)NC2CCCCc3cc(-c4ccnc5[nH]c(=O)[nH]c45)ccc32)n1 (single isomer, unassigned) [Compound 13, 3-tert-Butyl-[1,2,4]oxadiazole-5-carboxylic Acid [2-(2-oxo-2,3-dihydro-1H-imidazo[4,5-b]pyridin-7-yl)-6,7,8,9-tetrahydro-5H-benzocyclohepten-5-yl]-amide] | 7.00 to 8.00 |  |  | 
CC(C)(C)c1cc(C(=O)NC2CCCCc3cc(-c4ccnc5[nH]c(=O)[nH]c45)ccc32)on1 (centres unmarked) [Compound 14, Butyl-isoxazole-5-carboxylic Acid [2-(2-oxo-2,3-dihydro-1H-imidazo[4,5-b]pyridin-7-yl)-6,7,8,9-tetrahydro-5H-benzocyclohepten-5-yl]-amide] |  |  | 6.00 to 7.00 | 
CC(C)(C)C1CCN(C(=O)NCc2ccc(-c3ccnc4[nH]c(=O)[nH]c34)cc2F)C1 (centres unmarked) [Compound 5, 3-tert-Butyl-pyrrolidine-1-carboxylic Acid 2-fluoro-4-(2-oxo-2,3-dihydro-1H-imidazo[4,5-b]pyridin-7-yl)-benzylamide] | 7.00 to 8.00 |  |  | 
CC1(C)Cc2cc3n(c2C1)CCN(c1cc(F)cc(-c2ccnc4[nH]c(=O)[nH]c24)c1)C3=O [Compound 22, 2-[3-Fluoro-5-(2-oxo-2,3-dihydro-1H-imidazo[4,5-b]pyridin-7-yl)-phenyl]-7,7-dimethyl-3,4,7,8-tetrahydro-2H,6H-cyclopenta[4,5]pyrrolo[1,2-a]pyrazin-1-one] | 7.00 to 8.00 |  |  | 

Continued, in another order:

pIC50 (full-length human BTK) | pIC50 (WB) | Structure (SMILES) | pIC50 ([1]; Homo sapiens, PBMC) | pIC50 [1]
> 8.00 | 6.00 to 7.00 | CC(C)(C)c1noc(C(=O)NCc2ccc(-c3ccnc4[nH]c(=O)[nH]c34)cc2F)n1 [Compound 2, 3-tert-Butyl-[1,2,4]oxadiazole-5-carboxylic Acid 2-fluoro-4-(2-oxo-2,3-dihydro-1H-imidazo[4,5-b]pyridine-7-yl)-benzylamide] | 6.00 to 7.00 | 
7.00 to 8.00 |  | CC(C)(C)c1nc(C(=O)NCc2ccc(-c3ccnc4[nH]c(=O)[nH]c34)cc2F)no1 [Compound 3, 5-tert-Butyl-[1,2,4]oxadiazole-3-carboxylic Acid 2-fluoro-4-(2-oxo-2,3-dihydro-1H-imidazo[4,5-b]pyridin-7-yl)-benzylamide] |  | 
< 6.00 |  | CC(C)(C)c1ccc(C(=O)NCc2ccc(-c3ccnc4[nH]c(=O)[nH]c34)cc2F)cn1 [Compound 8, 6-tert-Butyl-N-[2-fluoro-4-(2-oxo-2,3-dihydro-1H-imidazo[4,5-b]pyridin-7-yl)-benzyl]-nicotinamide] |  | 
> 8.00 |  | CC(C)(C)c1nc(C(=O)NCc2ccc(-c3ccnc4[nH]c(=O)[nH]c34)cc2C(F)(F)F)no1 [Compound 19, 5-tert-Butyl-[1,2,4]oxadiazole-3-carboxylic Acid 4-(2-oxo-2,3-dihydro-1H-imidazo[4,5-b]pyridin-7-yl)-2-trifluoromethyl-benzylamide] |  | 
< 6.00 |  | CC(C)(C)c1noc(C(=O)NCc2ccc(-c3ccnc4[nH]c(=O)[nH]c34)c(CO)c2)n1 [Compound 10, 3-tert-Butyl-[1,2,4]oxadiazole-5-carboxylic Acid 3-hydroxymethyl-4-(2-oxo-2,3-dihydro-1H-imidazo[4,5-b]pyridin-7-yl)-benzylamide] |  | 
6.00 to 7.00 |  | CC(C)(C)c1nnc(C(=O)NCc2ccc(-c3ccnc4[nH]c(=O)[nH]c34)cc2F)o1 [Compound 7, 5-tert-Butyl-[1,3,4]oxadiazole-2-carboxylic Acid 2-fluoro-4-(2-oxo-2,3-dihydro-1H-imidazo[4,5-b]pyridin-7-yl)-benzylamide] |  | 
> 8.00 | 7.00 to 8.00 | Cc1cc(-c2ccnc3[nH]c(=O)[nH]c23)ccc1CNC(=O)c1nc(C(C)(C)C)no1 [Compound 23, 3-tert-Butyl-[1,2,4]oxadiazole-5-carboxylic Acid 2-methyl-4-(2-oxo-2,3-dihydro-1H-imidazo[4,5-b]pyridin-7-yl)-benzylamide] | 7.00 to 8.00 | 
7.00 to 8.00 |  | CC(C)(C)c1nc(C(=O)NCc2ccc(-c3ccnc4[nH]c(=O)[nH]c34)cc2F)cs1 [Compound 6, 2-tert-Butyl-thiazole-4-carboxylic Acid 2-fluoro-4-(2-oxo-2,3-dihydro-1H-imidazo[4,5-b]pyridin-7-yl)-benzylamide] |  | 
> 8.00 |  | CC(C)(C)c1noc(C(=O)NCc2ccc(-c3ccnc4[nH]c(=O)[nH]c34)cc2C2CC2)n1 [Compound 17, 3-tert-Butyl-[1,2,4]oxadiazole-5-carboxylic Acid 2-cyclopropyl-4-(2-oxo-2,3-dihydro-1H-imidazo[4,5-b]pyridin-7-yl)-benzylamide] | 6.00 to 7.00 | 
> 8.00 | 6.00 to 7.00 | CC1(c2noc(C(=O)NCc3ccc(-c4ccnc5[nH]c(=O)[nH]c45)cc3C(F)(F)F)n2)CC1 [Compound 18, 3-(1-Methyl-cyclopropyl)-[1,2,4]oxadiazole-5-carboxylic Acid 4-(2-oxo-2,3-dihydro-1H-imidazo[4,5-b]pyridin-7-yl)-2-trifluoromethyl-benzylamide] | 7.00 to 8.00 | 
> 8.00 | 6.00 to 7.00 | CC(C)(C)c1noc(C(=O)NCc2ccc(-c3ccnc4[nH]c(=O)[nH]c34)cc2C(F)(F)F)n1 [Compound 1, 3-tert-Butyl-[1,2,4]oxadiazole-5-carboxylic Acid 4-(2-oxo-2,3-dihydro-1H-imidazo[4,5-b]pyridine-7-yl)-2-trifluoromethyl-benzylamide] | 6.00 to 7.00 | 
